Earlier results as cited in publication PMC10535842, “Novel Thiazole-Based SIRT2 Inhibitors Discovered via Molecular Modelling Studies and Enzymatic Assays” (Pharmaceuticals, 2023).
Where “and” joins values, the source holds several entries; their conditions need not be identical. Identical values can stand only once.

System: SIRT2
Details: substrate RHKK(Ac)-AMC; read-out: SIRT2 IC50 (series B, compounds 27-111); cited from earlier work
For COc1ccc2ccccc2c1Cn1cnc2sc3c(c2c1=O)CCC(NCc1ccco1)C3 (stereo not shown) [Compound 27], the IC50 is listed as 5.24 µM.
In the case of O=c1c2c3c(sc2ncn1Cc1cccc2ccccc12)CC(NCc1ccco1)CC3 (stereo not shown) [Compound 28], the IC50 is listed as 7.61 µM.
In the case of O=c1c2c3c(sc2ncn1Cc1ccc2ccccc2c1)CC(NCc1ccco1)CC3 (stereo not shown) [Compound 29], the IC50 is listed as 11.7 µM.
For O=c1c2c3c(sc2ncn1Cc1cccc2cccnc12)CC(NCc1ccco1)CC3 (stereo not shown) [Compound 30], the IC50 is given as 4.16 µM.
For COc1ccc2ccccc2c1Cn1cnc2sc3c(c2c1=O)CCC(NCc1c(C)nn(C)c1C)C3 (stereo not shown) [Compound 31], the IC50 is listed as 5.11 µM.
For Cc1nn(C)c(C)c1CNC1CCc2c(sc3ncn(Cc4cccc5ccccc45)c(=O)c23)C1 (stereo not shown) [Compound 32], the IC50 is given as 4.2 µM.
In the case of Cc1nn(C)c(C)c1CNC1CCc2c(sc3ncn(Cc4ccc5ccccc5c4)c(=O)c23)C1 (stereo not shown) [Compound 33], the IC50 is given as 7.43 µM.
For COc1ccc2ccccc2c1Cn1cnc2sc3c(c2c1=O)CCC(NCc1c(C)noc1C)C3 (stereo not shown) [Compound 34], the IC50 is given as 4 µM.
In the case of Cc1noc(C)c1CNC1CCc2c(sc3ncn(Cc4cccc5ccccc45)c(=O)c23)C1 (stereo not shown) [Compound 35], the IC50 is listed as 1.85 µM.
In the case of COc1ccc(Cn2cnc3sc4c(c3c2=O)CCC(NCc2c(C)noc2C)C4)c2ccccc12 (stereo not shown) [Compound 36], the IC50 is listed as under 1 µM.
For Cc1noc(C)c1CNC1CCc2c(sc3ncn(Cc4cccc5cccnc45)c(=O)c23)C1 (stereo not shown) [Compound 37], the IC50 is given as 6.94 µM.
In the case of COc1ccc2ccccc2c1Cn1cnc2sc3c(c2c1=O)CCC(NCc1cccs1)C3 (stereo not shown) [Compound 38], the IC50 is given as 6.03 µM.
For O=c1c2c3c(sc2ncn1Cc1cccc2cccnc12)CC(NCc1cccs1)CC3 (stereo not shown) [Compound 39], the IC50 is given as 2.56 µM.
In the case of COc1ccc2ccccc2c1Cn1cnc2sc3c(c2c1=O)CCC(NCc1ccccc1)C3 (stereo not shown) [Compound 40], the IC50 is given as 21.1 µM.
In the case of O=c1c2c3c(sc2ncn1Cc1ccc2ccccc2c1)CC(NCc1ccccc1)CC3 (stereo not shown) [Compound 41], the IC50 is given as 5.45 µM.
For O=c1c2c3c(sc2ncn1Cc1cccc2cccnc12)CC(NCc1ccccc1)CC3 (stereo not shown) [Compound 42], the IC50 is given as 2.5 µM.
For COc1ccccc1Cn1cnc2sc3c(c2c1=O)CCC(NCc1ccccc1)C3 (stereo not shown) [Compound 43], the IC50 is listed as 10.4 µM.
In the case of COc1ccc2ccccc2c1Cn1cnc2sc3c(c2c1=O)CCC(NCc1cccc(F)c1)C3 (stereo not shown) [Compound 44], the IC50 is given as 4.07 µM.
In the case of O=c1c2c3c(sc2ncn1Cc1cccc2cccnc12)CC(NCc1cccc(F)c1)CC3 (stereo not shown) [Compound 45], the IC50 is given as 1.72 µM.
In the case of O=c1c2c3c(sc2ncn1Cc1cccc2cccnc12)CC(NCc1cccc(Cl)c1)CC3 (stereo not shown) [Compound 46], the IC50 is listed as 2.84 µM.
In the case of O=c1c2c3c(sc2ncn1Cc1cccc2cccnc12)CC(NCc1ccc(Cl)cc1)CC3 (stereo not shown) [Compound 47], the IC50 is given as 1.27 µM.
In the case of O=c1c2c3c(sc2ncn1Cc1cccc2cccnc12)CC(NCc1ccccc1Cl)CC3 (stereo not shown) [Compound 48], the IC50 is given as 3.8 µM.
For COc1ccccc1CNC1CCc2c(sc3ncn(Cc4c(OC)ccc5ccccc45)c(=O)c23)C1 (stereo not shown) [Compound 50], the IC50 is listed as 2.24 µM.
For COc1ccccc1CNC1CCc2c(sc3ncn(Cc4ccc5ccccc5c4)c(=O)c23)C1 (stereo not shown) [Compound 51], the IC50 is given as 4.22 µM.
For COc1ccccc1CNC1CCc2c(sc3ncn(Cc4cccc5cccnc45)c(=O)c23)C1 (stereo not shown) [Compound 52], the IC50 is listed as 5.61 µM.
For COc1ccccc1CNC1CCc2c(sc3ncn(Cc4ccccc4OC)c(=O)c23)C1 (stereo not shown) [Compound 53], the IC50 is listed as 9.59 µM.
In the case of COc1cccc(CNC2CCc3c(sc4ncn(Cc5c(OC)ccc6ccccc56)c(=O)c34)C2)c1 (stereo not shown) [Compound 54], the IC50 is given as 1.9 µM.
For COc1cccc(CNC2CCc3c(sc4ncn(Cc5ccccc5OC)c(=O)c34)C2)c1 (stereo not shown) [Compound 55], the IC50 is listed as 13.4 µM.
For COc1ccc(CNC2CCc3c(sc4ncn(Cc5c(OC)ccc6ccccc56)c(=O)c34)C2)cc1 (stereo not shown) [Compound 56], the IC50 is given as < 1 µM and 0.65 µM.
In the case of COc1ccc(CNC2CCc3c(sc4ncn(Cc5cccc6ccccc56)c(=O)c34)C2)cc1 (stereo not shown) [Compound 57], the IC50 is listed as 3.2 µM.
In the case of COc1ccc(CNC2CCc3c(sc4ncn(Cc5ccc6ccccc6c5)c(=O)c34)C2)cc1 (stereo not shown) [Compound 58], the IC50 is given as 3.82 µM.
In the case of COc1ccc(CNC2CCc3c(sc4ncn(Cc5cccc6cccnc56)c(=O)c34)C2)cc1 (stereo not shown) [Compound 59], the IC50 is listed as 1.83 µM.
For COc1ccc(NC2CCc3c(sc4ncn(Cc5cccc6cccnc56)c(=O)c34)C2)cc1 (stereo not shown) [Compound 60], the IC50 is listed as 2.48 µM.
In the case of Cc1ccc(NC2CCc3c(sc4ncn(Cc5cccc6cccnc56)c(=O)c34)C2)cc1 (stereo not shown) [Compound 61], the IC50 is given as 4.25 µM.
For O=c1c2c3c(sc2ncn1Cc1cccc2cccnc12)CC(Nc1ccc(F)cc1)CC3 (stereo not shown) [Compound 62], the IC50 is listed as < 1 µM and 0.97 µM.
For COc1ccc2ccccc2c1Cn1cnc2sc3c(c2c1=O)CCC(NCc1cccnc1)C3 (stereo not shown) [Compound 63], the IC50 is listed as 1.45 µM.
For O=c1c2c3c(sc2ncn1Cc1cccc2ccccc12)CC(NCc1cccnc1)CC3 (stereo not shown) [Compound 64], the IC50 is listed as 2.99 µM.
In the case of O=c1c2c3c(sc2ncn1Cc1cccc2cccnc12)CC(NCc1cccnc1)CC3 (stereo not shown) [Compound 65], the IC50 is listed as 2.92 µM.
For COc1ccc2ccccc2c1Cn1cnc2sc3c(c2c1=O)CCC(NCc1ccncc1)C3 (stereo not shown) [Compound 66], the IC50 is given as 1.2 µM.
In the case of O=c1c2c3c(sc2ncn1Cc1cccc2ccccc12)CC(NCc1ccncc1)CC3 (stereo not shown) [Compound 67], the IC50 is listed as 3.58 µM.
In the case of O=c1c2c3c(sc2ncn1Cc1ccc2ccccc2c1)CC(NCc1ccncc1)CC3 (stereo not shown) [Compound 68], the IC50 is listed as 3.14 µM.
In the case of O=c1c2c3c(sc2ncn1Cc1cccc2cccnc12)CC(NCc1ccncc1)CC3 (stereo not shown) [Compound 69], the IC50 is listed as 3.68 µM.
For COc1ccc2ccccc2c1Cn1cnc2sc3c(c2c1=O)CCC(NCc1ccccn1)C3 (stereo not shown) [Compound 70], the IC50 is listed as 3.12 µM.
In the case of O=c1c2c3c(sc2ncn1Cc1cccc2ccccc12)CC(NCc1ccccn1)CC3 (stereo not shown) [Compound 71], the IC50 is given as 7.68 µM.
In the case of O=c1c2c3c(sc2ncn1Cc1ccc2ccccc2c1)CC(NCc1ccccn1)CC3 (stereo not shown) [Compound 72], the IC50 is listed as 8.67 µM.
In the case of O=c1c2c3c(sc2ncn1Cc1cccc2cccnc12)CC(NCc1ccccn1)CC3 (stereo not shown) [Compound 73], the IC50 is given as 2.61 µM.
For COc1ccc(CNC2CCc3c(sc4ncn(Cc5c(OC)ccc6ccccc56)c(=O)c34)C2)cn1 (stereo not shown) [Compound 74], the IC50 is listed as 1.9 µM.
In the case of COc1ccc(CNC2CCc3c(sc4ncn(Cc5cccc6ccccc56)c(=O)c34)C2)cn1 (stereo not shown) [Compound 75], the IC50 is given as 7.59 µM.
In the case of COc1ccc(CNC2CCc3c(sc4ncn(Cc5ccc6ccccc6c5)c(=O)c34)C2)cn1 (stereo not shown) [Compound 76], the IC50 is given as 10.2 µM.
In the case of COc1ccc(CNC2CCc3c(sc4ncn(Cc5cccc6cccnc56)c(=O)c34)C2)cn1 (stereo not shown) [Compound 77], the IC50 is listed as 2.65 µM.
For COc1ccc2ccccc2c1Cn1cnc2sc3c(c2c1=O)CCC(NCCc1cccnc1)C3 (stereo not shown) [Compound 78], the IC50 is given as 10.3 µM.
In the case of O=c1c2c3c(sc2ncn1Cc1cccc2ccccc12)CC(NCCc1cccnc1)CC3 (stereo not shown) [Compound 79], the IC50 is listed as 9.57 µM.
For O=c1c2c3c(sc2ncn1Cc1ccc2ccccc2c1)CC(NCCc1cccnc1)CC3 (stereo not shown) [Compound 80], the IC50 is listed as 8.68 µM.
In the case of COc1ccc2ccccc2c1Cn1cnc2sc3c(c2c1=O)CCC(NCCc1ccncc1)C3 (stereo not shown) [Compound 81], the IC50 is listed as 2.75 µM.
For O=c1c2c3c(sc2ncn1Cc1cccc2ccccc12)CC(NCCc1ccncc1)CC3 (stereo not shown) [Compound 82], the IC50 is listed as 5.79 µM.
In the case of O=c1c2c3c(sc2ncn1Cc1ccc2ccccc2c1)CC(NCCc1ccncc1)CC3 (stereo not shown) [Compound 83], the IC50 is listed as 9.6 µM.
For O=c1c2c3c(sc2ncn1Cc1cccc2ccccc12)CC(NCc1cncnc1)CC3 (stereo not shown) [Compound 84], the IC50 is listed as 6.45 µM.
In the case of O=c1c2c3c(sc2ncn1Cc1ccc2ccccc2c1)CC(NCc1cncnc1)CC3 (stereo not shown) [Compound 85], the IC50 is given as 5.3 µM.
For COc1ccc2ccccc2c1Cn1cnc2sc3c(c2c1=O)CCC(NCC1CCCCC1)C3 (stereo not shown) [Compound 86], the IC50 is given as 1.65 µM.
For O=c1c2c3c(sc2ncn1Cc1ccc2ccccc2c1)CC(NCC1CCCCC1)CC3 (stereo not shown) [Compound 87], the IC50 is given as 5.53 µM.
For O=c1c2c3c(sc2ncn1Cc1cccc2cccnc12)CC(NCC1CCCCC1)CC3 (stereo not shown) [Compound 88], the IC50 is listed as 2.43 µM.
In the case of COc1ccccc1Cn1cnc2sc3c(c2c1=O)CCC(NCC1CCCCC1)C3 (stereo not shown) [Compound 89], the IC50 is listed as 9.18 µM.
In the case of COc1ccc2ccccc2c1Cn1cnc2sc3c(c2c1=O)CCC(NCC1CCCO1)C3 (stereo not shown) [Compound 90], the IC50 is listed as 1.9 µM.
For O=c1c2c3c(sc2ncn1Cc1cccc2ccccc12)CC(NCC1CCCO1)CC3 (stereo not shown) [Compound 91], the IC50 is listed as 12.5 µM.
For O=c1c2c3c(sc2ncn1Cc1ccc2ccccc2c1)CC(NCC1CCCO1)CC3 (stereo not shown) [Compound 92], the IC50 is given as 13.1 µM.
For COc1ccc2ccccc2c1Cn1cnc2sc3c(c2c1=O)CCC(NCC1CCOC1)C3 (stereo not shown) [Compound 93], the IC50 is given as 6.03 µM.
For O=c1c2c3c(sc2ncn1Cc1cccc(-c2ccccc2)c1)CC(NCC1CCOC1)CC3 (stereo not shown) [Compound 94], the IC50 is listed as 2.58 µM.
For O=c1c2c3c(sc2ncn1Cc1cccc2cccnc12)CC(NCCC1CCCCC1)CC3 (stereo not shown) [Compound 95], the IC50 is listed as 5.85 µM.
For O=c1c2c3c(sc2ncn1Cc1cccc(-c2ccccc2)c1)CC(NCCC1CCCCC1)CC3 (stereo not shown) [Compound 96], the IC50 is listed as 3.74 µM.
In the case of COc1ccc2ccccc2c1Cn1cnc2sc3c(c2c1=O)CCC(NC1CCCC1)C3 (stereo not shown) [Compound 97], the IC50 is given as 1.18 µM.
For COc1ccc(Cn2cnc3sc4c(c3c2=O)CCC(NC2CCCC2)C4)c2ccccc12 (stereo not shown) [Compound 98], the IC50 is given as 0.73 µM and < 1 µM.
For O=c1c2c3c(sc2ncn1Cc1cccc(-c2ccccc2)c1)CC(NC1CCCC1)CC3 (stereo not shown) [Compound 99], the IC50 is given as 1.52 µM.
For COc1ccc2ccccc2c1Cn1cnc2sc3c(c2c1=O)CCC(NC1CCOCC1)C3 (stereo not shown) [Compound 100], the IC50 is listed as 1.11 µM.
In the case of COc1ccc(Cn2cnc3sc4c(c3c2=O)CCC(NC2CCOCC2)C4)c2ccccc12 (stereo not shown) [Compound 101], the IC50 is listed as 5.06 µM.
For O=c1c2c3c(sc2ncn1Cc1cccc(-c2ccccc2)c1)CC(NC1CCOCC1)CC3 (stereo not shown) [Compound 102], the IC50 is given as 1.74 µM.
For O=c1c2c3c(sc2ncn1Cc1cccc(-c2ccccc2)c1)CC(NCCN1CCOCC1)CC3 (stereo not shown) [Compound 103], the IC50 is listed as 3.14 µM.
For O=c1c2c3c(sc2ncn1Cc1cccc(-c2ccccc2)c1)CC(NCCN1CCCC1)CC3 (stereo not shown) [Compound 104], the IC50 is given as 3.78 µM.
For O=c1c2c3c(sc2ncn1Cc1cccc2cccnc12)CC(NC1CCc2ccccc21)CC3 (stereo not shown) [Compound 105], the IC50 is listed as 3.09 µM.
For COc1ccccc1Cn1cnc2sc3c(c2c1=O)CCC(NC1CCc2ccccc21)C3 (stereo not shown) [Compound 106], the IC50 is listed as 16.3 µM.
In the case of O=c1c2c3c(sc2ncn1Cc1cccc2cccnc12)CC(NC1CCCc2ccccc21)CC3 (stereo not shown) [Compound 107], the IC50 is listed as 5.49 µM.
In the case of COc1ccc(CNCCc2sc3ncn(Cc4c(OC)ccc5ccccc45)c(=O)c3c2C)cc1 [Compound 108], the IC50 is listed as 3.36 µM.
For COc1ccc2ccccc2c1Cn1cnc2sc(CCNCc3cccnc3)c(C)c2c1=O [Compound 109], the IC50 is given as 2.15 µM.
